Format in all cases: cell-based
Conditions in all cases: single compound, 7 days

Test [1] concerns Pyricularia oryzae.
Test [2] deals with Botrytis cinerea. Kind of test: Activity against the grey mold Botrytis cinerea in the microtiterplate test (Botrci).
Test [3] deals with Septoria tritici. Kind of test: Activity against leaf blotch on wheat caused by Septoria tritici (Septtr), microtiter plate.
For test [4], the system named is Phytophthora infestans.

Read-outs that look alike come from different tables or passages of the source.

These results are taken from patent publication US20150250173A1, “PESTICIDALLY ACTIVE MIXTURES COMPRISING ANTHRANILAMIDE COMPOUNDS” (BASF SE, priority 2012, published 2015).

Turning to `Cc1cc(Cl)cc(C(=O)N=S(C(C)C)C(C)C)c1NC(=O)c1cc(C(F)(F)F)nn1-c1ncccc1Cl` [Compound I-21, 2-(3-chloro-2-pyridyl)-N-[2-methyl-4-chloro-6-[(bis-2-propyl-λ^4-sulfanylidene)carbamoyl]phenyl]-5-(trifluoromethyl)pyrazole-3-carboxamide], the Observed efficacy is listed as 0 in test [1] (1 ppm); 0 in test [1] (4 ppm); 0 in test [2] (4 ppm); 4 in test [2] (16 ppm); 12 in test [3] (4 ppm).

In the case of `OC(Cc1ccccc1Cl)(Cn1nc[nH]c1=S)C1(Cl)CC1` (stereo not shown) [Prothioconazol], the Observed efficacy in test [3] (0.063 ppm) came out at 62.

Mancozeb showed an Observed efficacy in test [3] (4 ppm) of 48.

In the case of `CCS(CC)=NC(=O)c1cc(Cl)cc(C)c1NC(=O)c1cc(C(F)(F)F)nn1-c1ncccc1Cl` [Compound I-11, 2-(3-chloro-2-pyridyl)-N-[2-methyl-4-chloro-6-[(diethyl-λ^4-sulfanylidene)carbamoyl]phenyl]-5-(trifluoromethyl)pyrazole-3-carboxamide], the Observed efficacy in test [1] (1 ppm) is 0; in test [1] (4 ppm), 3; in test [1] (63 ppm) it was 10.

On to `CCS(CC)=NC(=O)c1cc(Cl)cc(Cl)c1NC(=O)c1cc(C(F)(F)F)nn1-c1ncccc1Cl` [Compound I-16, 2-(3-chloro-2-pyridyl)-N-[2,4-dichloro-6-[(diethyl-λ^4-sulfanylidene)carbamoyl]phenyl]-5-(trifluoromethyl)pyrazole-3-carboxamide], for which the Observed efficacy was found to be 3 in test [1] (1 ppm); 4 in test [1] (4 ppm); 16 in test [3] (4 ppm); 17 in test [3] (63 ppm); 23 in test [4] (16 ppm).

`CO/C=C(/C(=O)OC)c1ccccc1Oc1cc(Oc2ccccc2C#N)ncn1` [Azoxystrobin] came in with an Observed efficacy in test [1] (0.016 ppm) of 38.

As to `CON=C(C(=O)OC)c1ccccc1CON=C(C)c1cccc(C(F)(F)F)c1` [Trifloxystrobin], the Observed efficacy is reported as 29 in test [1] (0.016 ppm), 29 in test [1] (0.063 ppm) and 62 in test [3] (0.016 ppm).

`CO/C=C(/C(=O)OC)c1ccccc1COc1cccc(C(F)(F)F)n1` [Picoxystrobin]: the Observed efficacy in test [1] (0.063 ppm) is recorded as 72; in test [3] (0.063 ppm) it was 53.

Regarding `Fc1ccc([C@]2(Cn3cncn3)O[C@H]2c2ccccc2Cl)cc1` [Epoxiconazol], the Observed efficacy in test [2] (0.25 ppm) was found to be 59.

With `O=C(Nc1ccccc1-c1ccc(Cl)cc1)c1cccnc1Cl` [Boscalid], the Observed efficacy in test [1] (16 ppm) is given as 10.

Take `COC(=O)N(OC)c1ccccc1COc1ccn(-c2ccc(Cl)cc2)n1` [Pyraclostrobin]: the values for the Observed efficacy in test [1] (0.004 ppm), in test [1] (0.016 ppm) and in test [4] (0.063 ppm) were 39, 49 and 10, respectively.

Molecule `CCCN(CCOc1c(Cl)cc(Cl)cc1Cl)C(=O)n1ccnc1` [Prochloraz] yielded an Observed efficacy in test [2] (0.016 ppm) of 14.

Consider `CO/N=C(/C1=NOCCO1)c1ccccc1Oc1ncnc(Oc2ccccc2Cl)c1F` [Fluoxastrobin], for which the Observed efficacy in test [3] (0.25 ppm) worked out at 70.
